Ten compounds from patent US20060172023A1, “Use of pinolenic acid” (LODERS CROKLAAN B.V., priority 2005, published 2006) can be followed below.

One test concerns enteroendocrine STC1-1 cell line. The test is described as follows: In-vitro relative CCK release from enteroendocrine cells (Example 4, RIA). In kind it is cell-based. The note with it: 100 μM in free fatty acid form, 1 hour. How it is done: The relative CCK release by a number of different compounds was determined in vitro an in-vitro trial to measure the effect of various free fatty acids on CCK release from intestinal cells.
Cells were routinely passaged upon reaching 70-80% confluency by washing the cell layer with PBS and incubating with a solution of trypsin-EDTA. Plating density of 2×10^6 cells by 75 cm^2 was used for routine subculture.
STC1 cells were seeded into 6-well culture plates and incubated with control culture medium, with or without the tested agents, for 1 hour. All agents were tested at a 100 μM concentration in the free fatty acid form. Since fatty acids were diluted into ethanol the effect of ethanol was tested and indicated the baseline CCK levels. […] Effects of bombesin was used as positive control. At the end of incubation the supernatant was collected, centrifuged and immediately frozen at −20° C. for RIA.
Cell viability was checked by microscopic analysis, analyzing DNA content which was measured by fluorometry after extraction of the culture cell contents, and in addition LDH release was measured.
CCK release was measured using a standard CCK RIA and effects of fatty acids were measured in 6-fold.
As to `CCCC/C=C/C=C/C=C\CCCCCCCC(=O)O` [Alpha-eleostearic acid 18:3, Alpha-eleostearic acid], the “Ability to induce CCK (in words)” value was “good inducers of CCK”.
On to `CC/C=C\C/C=C\C/C=C\CCCCCCCC(=O)O` [Alpha-linolenic acid 18:3, Alpha-linolenic acid], for which the “Ability to induce CCK (in words)” value is on record as “good inducers of CCK”.
Still for that read-out and setting: the value for `CCCCC/C=C\C/C=C\C/C=C\CCCCC(=O)O` [Gamma-linolenic acid 18:3, Gamma-linolenic acid] was “good inducers of CCK”.
Regarding `CCCCCC=CC/C=C\CCCCCCCC(=O)O` [Linoleic acid 18:2, cis-9,12 octadecadienoic acid], the “Ability to induce CCK (in words)” value was “not able to induce high amounts of CCK” and the “Level of CCK relative to negative control capric acid” value was “about 2 fold”.
For `CCCCCCCC/C=C\CCCCCCCC(=O)O` [Oleic acid 18:1, cis-9 octadecenoic acid], the “Ability to induce CCK (in words)” value is given as “not able to induce high amounts of CCK” and the “Level of CCK relative to negative control capric acid” value is given as “about 2 fold”.
On to `CCCC\C=C/C=C/C=C\CCCCCCCC(=O)O` [Punicic acid 18:3, Punicic acid], for which the “Ability to induce CCK (in words)” value is listed as “good inducers of CCK”.
Consider `CC/C=C\C/C=C\C/C=C\CCCC/C=C\CCCC(=O)O` [juniperonic acid], for which the “Ability to induce CCK (in words)” value was “not able to induce high amounts of CCK” and the “Level of CCK relative to negative control capric acid” value was “about 2 fold”.
With `CCCCC/C=C\C/C=C\CCCC/C=C\CCCC(=O)O` [sciadonic acid], the “Ability to induce CCK (in words)” value is listed as “not able to induce high amounts of CCK” and the “Level of CCK relative to negative control capric acid” value was “about 2 fold”.
For `CCCCCCCCC=CCC/C=C\CCCC(=O)O` [taxoleic acid, cis-5,9 octadecadienoic acid], in that order: “not able to induce high amounts of CCK” and “about 2 fold”.

Still in this test, the particulars now being: 100 μM in free fatty acid form, 1 hour, measured in 6-fold.
As for `CCCC/C=C/C=C/C=C\CCCCCCCC(=O)O` [Alpha-eleostearic acid 18:3, Alpha-eleostearic acid], the “Relative amount of CCK released” value stood at 212.
Still for that read-out and setting: the value for `CC/C=C\C/C=C\C/C=C\CCCCCCCC(=O)O` [Alpha-linolenic acid 18:3, Alpha-linolenic acid] was 177; that for `CCCCCCCCCC(=O)O` [Capric acid] was 43.
Still for that read-out and setting: the value for `CCCCC/C=C\C/C=C\C/C=C\CCCCC(=O)O` [Gamma-linolenic acid 18:3, Gamma-linolenic acid] was 140.
The same measure, in the same setting: the value for `CCCCCC=CC/C=C\CCCCCCCC(=O)O` [Linoleic acid 18:2, cis-9,12 octadecadienoic acid] was 68; that for `CCCCCCCC/C=C\CCCCCCCC(=O)O` [Oleic acid 18:1, cis-9 octadecenoic acid] was 90.
With `CCCC\C=C/C=C/C=C\CCCCCCCC(=O)O` [Punicic acid 18:3, Punicic acid], the “Relative amount of CCK released” value amounted to 320.
